Measurements from patent publication EP1038880B1, “Androstanes and pregnanes for allosteric modulation of GABA receptor” (priority 1994, dated 1995).
Where “and” joins values, the source holds several entries; their conditions need not be identical. Equal values may be shown once.

Tests used:
GR complex = assay: [35S]TBPS binding assay (inhibition of [35S]TBPS binding, cerebral cortex P2 homogenate); set-up: species or system rat; settings: for IC50: 2 nM [35S]TBPS, rat cerebral cortex P2 homogenate; for IMAX: maximum inhibition of [35S]TBPS binding
How it was run: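 Rat (male Sprague-Dawley) cortical P2 homogenate (0.5 mg protein) in 50 mM Na/K phosphate pH 7.4, 200 mM NaCl, incubated with 2 nM [35S]TBPS plus steroid test compounds (DMSO) in presence of GABA plus (+)bicuculline, 25°C, 90 min. Filtration, scintillation counting; nonspecific binding defined with […].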

[1] = tested on: metrazol induced convulsions; assay: animal or person; type: in vivo, mice; settings: for responders at 10 mg/kg: 10 min, 10 minutes prior to metrazol (85 mg/kg)
Description: Experiments were also performed to determine the physiological relevance of neuroactive steroid and GABA receptor interactions by assessing the ability of the compounds of and used in the invention to prevent metrazol induced convulsions in mice. Mice were injected with various doses of the test compounds of the invention, 10 minutes prior to the injection of metrazol. The time to onset of myoclomis (presence of forelimb clonic activity) induced by metrazol was determined by observing each mouse for a period of 30 minutes. […] Table 6: Antimetrazol Activity of Neuroactive Steroids in Mice
The anticonvulsant tests are similar to that described above. […] The number of animals with tonic and/or clonic convulsions was recorded. In the maximal electroshock test, 50 mA of current at 60 Hz was delivered through corneal electrodes for 200 msec to induce tonic seizure. The ability of compounds to abolish the tonic component was defined as the endpoint. General CNS depression potential was determined by a rotorod test 10 minutes after the injection of compounds where the number of mice staying on a rotating (6 rpm) rod for 1 minute in one of the three trials was determined. […] Table 7. Anticonvulsant Activity of Exemplified Neuroactive Steroids and those of Selected Clinically Useful Anticonvulsants in Mice

[2] = tested on: N.I.H. Swiss-Webster mice; assay: Elevated plus-maze; type: in vivo; settings: for response vs control in vivo at 10 mg/kg: Mus musculus, ip, read-out: % Control
Excerpt: The theoretical basis for the elevated plus-maze test is similar to that of the light/dark transition test. […] The apparatus consists of two open-arms and two enclosed-arms. The elevated plus-maze test allows for two measures of anxiety, the number of entries into the open-arms and the time spent on the open-arms, both expressed as a percentage of the total number of entries and time spent in/on both the open-arms and enclosed-arms.
Male N.LH. Swiss-Webster mice (Harlan, Indianapolis, IN) weighing 15-20 g were housed four per cage in polyethylene cages with sawdust bedding. The colony mom was environmentally controlled (22°C) with a 12^- hr light/dark cycle (0600-1800 hr). Food and water were available ad libitum, except during testing. The experiments were run from 0700-1500 hr and groups were counterbalance for time of day effects. Mice were only administered drug or vehicle once.
The apparatus included two open arms perpendicular to two enclosed arms elevated 50 cm from the floor. Each arm was 50 cm long and the walls of the enclosed arms were 40 cm tall. The maze was made completely of black plexiglass. Incandescent 200 W light bulbs were above each of the open arms to produce a strong contrast between the open arms and the enclosed arms.
Ten minutes after an injection, the N.I.H. Swiss-Webster mice were placed in the center of the plus-maze facing an open arm. During the 5 min test period, the number of entries onto the open arms and the enclosed arms, and the time spent in the open arms and enclosed arms were measured. All four paws had to be within an arm for the dependent variable to be measured. Therefore, the time spent in the center of the maze is not counted, so the total time spent in the open arms and the enclosed arms may not equal 5 min.

[3] = Mus musculus, IP, 10 mg/kg, read-out: % Protected

| SMILES | IC50 (GR complex) | IMAX (GR complex) | responders at 10 mg/kg [1, 3] [%] | response vs control in vivo at 10 mg/kg [2] [%] | responders at 40 mg/kg ([1]; Mus musculus, PO, 40 mg/kg, water, read-out: % Protected) [%] | % Protected ([1]; IP, 1 mg/kg, 50% hpbcd) [%] | % Control ([2]; IP, 1 mg/kg, 50% hpbcd) [%] | % Protected ([1]; PO, 10 mg/kg, water) [%] | % Control ([2]; PO, 10 mg/kg, water) [%] |
| --- | --- | --- | --- | --- | --- | --- | --- | --- | --- |
| CC(=O)c1ccc(C#C[C@@]2(O)CC[C@@]3(C)[C@H](CC[C@@H]4[C@@H]3CC[C@]3(C)[C@@H](C(=O)CO)CC[C@@H]43)C2)cc1 [3β-(4'-acetylphenylethynyl)-3α,21-dihydroxy-5β-pregnan-20-one] | 22 nM | 99% | 75 | 115 |  |  |  |  |  |
| C#C[C@@]1(O)CC[C@@]2(C)[C@H](CC[C@@H]3[C@@H]2CC[C@]2(C)[C@@H](C(=O)Cn4cccn4)CC[C@@H]32)C1 [3β-ethynyl-3α-hydroxy-21-(1'-pyrazolyl)-5β-pregnan-20-one] | 106 nM | 99% | 62.5 | 180 |  |  |  |  |  |
| C[C@]12CC[C@@H](O)C[C@H]1CC[C@@H]1[C@@H]2CC[C@]2(C)[C@@H](C(=O)CSS(=O)(=O)[O-])CC[C@@H]12.[Na+] [sodium S-(3α-hydroxy-5β-pregnan-20-on-21-yl) thiosulfate] | 268 nM | 88% | 37.5 | 143 |  |  |  |  |  |
| COc1ccccc1C#C[C@@]1(O)CC[C@@]2(C)[C@H](CC[C@@H]3[C@@H]2CC[C@]2(C)[C@@H](C(C)=O)CC[C@@H]32)C1 [3α-hydroxy-3β-(2'-methoxyphenyl)ethynyl-5β-pregnan-20-one] | 238 nM | 99% | 12.5 | 152 |  |  |  |  |  |
| C[C@]12CC[C@](O)(C#CCCO)C[C@H]1CC[C@@H]1[C@@H]2CC[C@]2(C)[C@@H](C(=O)CSS(=O)(=O)O)CC[C@@H]12 [sodium S-[3α-hydroxy-3β-(4'-hydroxybutynyl)-5β-pregnan-20-on-21-yl] thiosulfate] | 107 nM | 97% |  | 135 | 33.3 |  |  |  |  |
| Cc1cc(C)n(CC(=O)[C@H]2CC[C@H]3[C@@H]4CC[C@@H]5C[C@H](O)CC[C@]5(C)[C@H]4CC[C@]23C)n1 [3α-hydroxy-21-(1H-3,5-dimethylpyrazolyl)-5β-pregnan-20-one] | 96 nM | 77% | 50 | 128 |  |  |  |  |  |
| CC(=O)CCCC#C[C@@]1(O)CC[C@@]2(C)[C@H](CC[C@@H]3[C@@H]2CC[C@]2(C)[C@@H](C(C)=O)CC[C@@H]32)C1 [3α-hydroxy-3β-[6'-oxo-1'-heptynyl]-5β-pregnan-20-one] | 90 nM | 101% | 62.5 | 130 |  |  |  |  |  |
| CC(=O)[C@H]1CC[C@H]2[C@@H]3CC[C@@H]4C[C@@](O)(C#CCn5ccnn5)CC[C@]4(C)[C@H]3CC[C@]12C [3α-Hydroxy-3β-[3-(1'H-1,2,3-triazol-1'-yl)-1-propynyl]-5β-pregnan-20-one] | 655 nM | 102% | 25 | 116 |  |  |  |  |  |
| C#C[C@@]1(O)CC[C@@]2(C)[C@H](CC[C@@H]3[C@@H]2CC[C@]2(C)[C@@H](C(=O)Cn4ccnc4)CC[C@@H]32)C1 [3β-ethynyl-3α-hydroxy-21-(1'-imidazolyl)-5β-pregnan-20-one] | 80 nM | 103% | 50 | 179 |  |  |  |  |  |
| CC(=O)c1ccc(C#C[C@@]2(O)CC[C@@]3(C)[C@H](CC[C@@H]4[C@@H]3CC[C@]3(C)[C@@H](C(C)=O)CC[C@@H]43)C2)s1 [3β-(5-Acetylthien-2-yl)ethynyl-3α-hydroxy-5β-pregnan-20-one] | 52 nM | 89% | 25 | 83 |  |  |  |  |  |
| CC(=O)c1ccc(C#CC2(O)CCC3(C)C(CCC4C3CCC3(C)C(C(=O)CO)CCC43)C2)cc1 (stereo not drawn) [3β-(4'-Acetylphenylethynyl)-3α-21-dihydroxy-5α-pregnan-20-one] | 4 nM | 92% |  |  |  | 87.5 | 150 |  |  |
| CC(=O)[C@H]1CC[C@H]2[C@@H]3CC[C@@H]4C[C@@](O)(C#CCCCO)CC[C@]4(C)[C@H]3CC[C@]12C [3β-(5'-hydroxy-1'-pentynyl)-3α-hydroxy-5β-pregnan-20-one] | 58 nM | 100% | 12.5 | 137 |  |  |  |  |  |
| CC(=O)[C@H]1CC[C@H]2[C@@H]3CC[C@@H]4C[C@@](O)(C#Cc5ccccn5)CC[C@]4(C)[C@H]3CC[C@]12C [3α-Hydroxy-3β-(2-pyridyl)ethynyl-5β-pregnan-20-one] | 108 nM | 98% | 37.5 | 123 |  |  |  |  |  |
| C[C@@]1(O)CC[C@@]2(C)[C@@H](CC[C@@H]3[C@@H]2CC[C@]2(C)[C@@H](C(=O)Cn4cncn4)CC[C@@H]32)C1 [3α-Hydroxy-3β-methyl-21-(1',2',4'-triazolyl)-5α-pregnan-20-one] | 125 nM | 105% | 87.5 | 153 |  |  |  |  |  |
| C[C@@]1(O)CC[C@@]2(C)[C@@H](CC[C@@H]3[C@@H]2CC[C@]2(C)[C@@H](C(=O)Cn4cccn4)CC[C@@H]32)C1 [3α-hydroxy-21-(1'-pyrazolyl)-3β-methyl-5α-pregnan-20-one] | 115 nM | 98% | 87.5 | 154 |  |  |  |  |  |
| CC(=O)[C@H]1CC[C@H]2[C@@H]3CC[C@@H]4C[C@@](O)(C#CCn5cccn5)CC[C@]4(C)[C@H]3CC[C@]12C [3α-hydroxy-3β-[3-(1'H-pyrazol-1'-yl)-1-propynyl]-5β-pregnan-20-one] | 81 nM | 98% | 25 | 116 |  |  |  |  |  |
| CC(=O)[C@H]1CC[C@H]2[C@@H]3CC[C@@H]4C[C@@](O)(C#Cc5ccc(C)cc5)CC[C@]4(C)[C@H]3CC[C@]12C [3α-hydroxy-3β-(4'-methylphenylethynyl)-5β-pregnan-20-one] | 88 nM | 84% | 75 | 148 |  |  |  |  |  |
| C[C@@]1(O)CC[C@@]2(C)[C@@H](CC[C@@H]3[C@@H]2CC[C@]2(C)[C@@H](C(=O)CSS(=O)(=O)[O-])CC[C@@H]32)C1.[Na+] [sodium S-(3α-hydroxy-3β-methyl-5α-pregnan-20-on-21-yl) thiosulfate] | 151 nM | 101% | 62.5 | 125 |  |  |  |  |  |
| CC(=O)c1ccc(C#C[C@@]2(O)CC[C@@]3(C)[C@@H](CC[C@@H]4[C@@H]3CC[C@]3(C)[C@@H](C(=O)COC(=O)CCC(=O)[O-])CC[C@@H]43)C2)cc1.[Na+] [3β-(4'-Acetylphenylethynyl)-3α,21-dihidroxy-5α-pregnan-20-one 21-hemisuccinate sodium salt] |  |  |  |  |  |  |  | 80 | 166 |
| CC(=O)c1ccc(C#CC2(O)CCC3(C)C(CCC4C3CCC3(C)C(C(=O)COC(=O)CCC(=O)[O-])CCC43)C2)cc1.[Na+] (stereo not drawn) [3β-(4'-Acetylphenylethynyl)-3α,21-dihydroxy-5β-pregnan-20-one 21-hemisuccinate sodium salt] |  |  |  |  |  |  |  | 75 | 248 |
| CC(=O)[C@H]1CC[C@H]2[C@@H]3CC[C@@H]4C[C@@](O)(C#CCOc5ccncc5)CC[C@]4(C)[C@H]3CC[C@]12C [3α-Hydroxy-3β-[3-(4'-pyridinyloxy)-1-propynyl]-5β-pregnan-20-one] | 465 nM | 94% | 12.5 |  |  |  |  |  |  |
| CC(=O)C1CCC2C3CCC4CC(O)(C#CC(C)O)CCC4(C)C3CCC12C (racemic) [3β-[3'(R/S)-hydroxy-1'-butynyl]-3α-hydroxy-5α-pregnan-20-one] | 144 nM and 202 nM | 99% and 102% | 50 |  |  |  |  |  |  |
